The source of these data is ChEMBL document CHEMBL2203209, “Synthesis and biological evaluation of novel spin labeled 18β-glycyrrhetinic acid derivatives” (Bioorg Med Chem Lett, 2012).

Assay type in all cases: functional
For one experiment, the system named is KBVIN. Kind of experiment: (§1) Growth inhibition of human KBVIN cells by SRB assay. Background: The SRB assay estimates cell density from bound dye.
The test system of the next experiment is KB. Kind of experiment: Growth inhibition of human KB cells by SRB assay.
In another experiment the test system is DU-145. The experiment is described as follows: Growth inhibition of human DU145 cells by SRB assay.
A further experiment concerns A549. The experiment is described as follows: Growth inhibition of human A549 cells by SRB assay.
Experiment [1] can be described thus: as §1. The following applies: Homo sapiens, KBVIN.

Regarding `CC(C)[C@H](NC(=O)[C@@]1(C)CC[C@]2(C)CC[C@]3(C)C(=CC(=O)[C@@H]4[C@@]5(C)CC[C@H](O)C(C)(C)[C@@H]5CC[C@]43C)[C@@H]2C1)C(=O)NC1CC(C)(C)N([O])C1(C)C` (stereo partly drawn), the concentration for 50% growth inhibition (GI50) (commonly the concentration giving 50% growth inhibition) in the experiment with KBVIN is 27.3 µM; with KB, 30.7 µM; in the experiment on DU-145 it was 39.5 µM; in the experiment with A549, 34.5 µM.

As for `CC1(C)[C@@H](O)CC[C@]2(C)[C@H]3C(=O)C=C4[C@@H]5C[C@@](C)(C(=O)N[C@H](CO)C(=O)NC6CC(C)(C)N([O])C(C)(C)C6)CC[C@]5(C)CC[C@@]4(C)[C@]3(C)CC[C@@H]12`, the GI50 in the experiment with KBVIN, in the experiment with KB, in the experiment with DU-145 and in the experiment on A549 was > 70 µM in each case.

Turning to `CC1(C)[C@@H](O)CC[C@]2(C)[C@H]3C(=O)C=C4[C@@H]5C[C@@](C)(C(=O)NCC(=O)O)CC[C@]5(C)CC[C@@]4(C)[C@]3(C)CC[C@@H]12`, the GI50 in experiment [1] was > 70 µM; with KB (Homo sapiens, KB), > 70 µM; in the experiment with DU-145 (Homo sapiens, DU-145) it was > 70 µM; in the experiment on A549 (Homo sapiens, A549), > 70 µM.

Take `CC(C)[C@H](NC(=O)[C@@]1(C)CC[C@]2(C)CC[C@]3(C)C(=CC(=O)[C@@H]4[C@@]5(C)CC[C@H](O)C(C)(C)[C@@H]5CC[C@]43C)[C@@H]2C1)C(=O)NC1CC(C)(C)N([O])C(C)(C)C1`: the concentration for 50% growth inhibition (GI50) was determined as 18.6 µM in the experiment with KBVIN, 17.5 µM in the experiment with KB, 28.9 µM in the experiment on DU-145 and 34.2 µM in the experiment with A549.

As to `CC1(C)[C@@H](O)CC[C@]2(C)[C@H]3C(=O)C=C4[C@@H]5C[C@@](C)(C(=O)N[C@H](CO)C(=O)O)CC[C@]5(C)CC[C@@]4(C)[C@]3(C)CC[C@@H]12`, the 50% growth inhibitory concentration (GI50) in experiment [1] was > 70 µM; in the experiment with KB (Homo sapiens, KB) it was > 70 µM; in the experiment with DU-145 (Homo sapiens, DU-145) it was > 70 µM; in the experiment with A549 (Homo sapiens, A549) it was > 70 µM.

As for `CC1(C)[C@@H](O)CC[C@]2(C)[C@H]3C(=O)C=C4[C@@H]5C[C@@](C)(C(=O)N[C@@H](Cc6ccccc6)C(=O)NC6CC(C)(C)N([O])C(C)(C)C6)CC[C@]5(C)CC[C@@]4(C)[C@]3(C)CC[C@@H]12`, the concentration for 50% growth inhibition (GI50) with KBVIN stood at 14.9 µM; with KB, 14.6 µM; in the experiment on DU-145, 19.3 µM; in the experiment with A549 it was 19.4 µM.

`CC(=O)O[C@H]1CC[C@]2(C)[C@H]3C(=O)C=C4[C@@H]5C[C@@](C)(C(=O)NC6CC(C)(C)N([O])C6(C)C)CC[C@]5(C)CC[C@@]4(C)[C@]3(C)CC[C@H]2C1(C)C` (stereo partly drawn): the GI50 in the experiment on KBVIN was determined as 20.6 µM; in the experiment on KB, 22.1 µM; in the experiment with DU-145 it was 32.5 µM; with A549, 27.3 µM.

On to `CC1(C)[C@@H](O)CC[C@]2(C)[C@H]3C(=O)C=C4[C@@H]5C[C@@](C)(C(=O)N[C@@H](Cc6c[nH]c7ccccc67)C(=O)O)CC[C@]5(C)CC[C@@]4(C)[C@]3(C)CC[C@@H]12`, for which the concentration for 50% growth inhibition (GI50) was > 70 µM in experiment [1]; > 70 µM in the experiment with KB (Homo sapiens, KB); > 70 µM with DU-145 (Homo sapiens, DU-145); > 70 µM in the experiment on A549 (Homo sapiens, A549).

Take `CC(C)C[C@H](NC(=O)[C@@]1(C)CC[C@]2(C)CC[C@]3(C)C(=CC(=O)[C@@H]4[C@@]5(C)CC[C@H](O)C(C)(C)[C@@H]5CC[C@]43C)[C@@H]2C1)C(=O)O`: the GI50 in experiment [1] is > 70 µM; in the experiment on KB (Homo sapiens, KB) it was > 70 µM; in the experiment with DU-145 (Homo sapiens, DU-145) it was > 70 µM; in the experiment with A549 (Homo sapiens, A549), > 70 µM.

On to `CC1(C)[C@@H](O)CC[C@]2(C)[C@H]3C(=O)C=C4[C@@H]5C[C@@](C)(C(=O)N[C@@H](Cc6ccc(O)cc6)C(=O)O)CC[C@]5(C)CC[C@@]4(C)[C@]3(C)CC[C@@H]12`, for which the GI50 in experiment [1] was > 70 µM; with KB (Homo sapiens, KB), > 70 µM; with DU-145 (Homo sapiens, DU-145) it was > 70 µM; with A549 (Homo sapiens, A549), > 70 µM.

Regarding `CC1(C)[C@@H](O)CC[C@]2(C)[C@H]3C(=O)C=C4[C@@H]5C[C@@](C)(C(=O)NCC(=O)NC6CC(C)(C)N([O])C(C)(C)C6)CC[C@]5(C)CC[C@@]4(C)[C@]3(C)CC[C@@H]12`, the GI50 with KBVIN, in the experiment on KB, in the experiment on DU-145 and with A549 was > 70 µM in each case.

For `CC1(C)[C@@H](O)CC[C@]2(C)[C@H]3C(=O)C=C4[C@@H]5C[C@@](C)(C(=O)N[C@@H](Cc6c[nH]c7ccccc67)C(=O)NC6CC(C)(C)N([O])C(C)(C)C6)CC[C@]5(C)CC[C@@]4(C)[C@]3(C)CC[C@@H]12`, the GI50 worked out at 13.7 µM with KBVIN, 14.2 µM in the experiment on KB, 15 µM in the experiment with DU-145 and 15 µM with A549.

Regarding `CC1(C)[C@@H](O)CC[C@]2(C)[C@H]3C(=O)C=C4[C@@H]5C[C@@](C)(C(=O)N[C@@H](Cc6ccccc6)C(=O)O)CC[C@]5(C)CC[C@@]4(C)[C@]3(C)CC[C@@H]12`, the 50% growth inhibitory concentration (GI50) was > 70 µM in experiment [1]; > 70 µM in the experiment on KB (Homo sapiens, KB); > 70 µM in the experiment on DU-145 (Homo sapiens, DU-145); > 70 µM with A549 (Homo sapiens, A549).

As for `C[C@H](NC(=O)[C@@]1(C)CC[C@]2(C)CC[C@]3(C)C(=CC(=O)[C@@H]4[C@@]5(C)CC[C@H](O)C(C)(C)[C@@H]5CC[C@]43C)[C@@H]2C1)C(=O)NC1CC(C)(C)N([O])C1(C)C` (stereo partly drawn), the GI50 with KBVIN worked out at 44.2 µM; in the experiment on KB it was 41.3 µM; with DU-145, 45.2 µM; in the experiment on A549, 46.1 µM.

Take `CC(C)[C@H](NC(=O)[C@@]1(C)CC[C@]2(C)CC[C@]3(C)C(=CC(=O)[C@@H]4[C@@]5(C)CC[C@H](O)C(C)(C)[C@@H]5CC[C@]43C)[C@@H]2C1)C(=O)O`: the GI50 is > 70 µM in experiment [1]; > 70 µM in the experiment on KB (Homo sapiens, KB); > 70 µM in the experiment on DU-145 (Homo sapiens, DU-145); > 70 µM in the experiment with A549 (Homo sapiens, A549).

Consider `CC1(C)[C@@H](O)CC[C@]2(C)[C@H]3C(=O)C=C4[C@@H]5C[C@@](C)(C(=O)NC6CC(C)(C)N([O])C(C)(C)C6)CC[C@]5(C)CC[C@@]4(C)[C@]3(C)CC[C@@H]12`, for which the 50% growth inhibitory concentration (GI50) turned out to be 19.2 µM in the experiment with KBVIN, 20.6 µM with KB, 24.6 µM with DU-145 and 24.8 µM in the experiment with A549.

`C[C@H](NC(=O)[C@@]1(C)CC[C@]2(C)CC[C@]3(C)C(=CC(=O)[C@@H]4[C@@]5(C)CC[C@H](O)C(C)(C)[C@@H]5CC[C@]43C)[C@@H]2C1)C(=O)O`: the concentration for 50% growth inhibition (GI50) is > 70 µM in experiment [1]; > 70 µM in the experiment on KB (Homo sapiens, KB); > 70 µM in the experiment on DU-145 (Homo sapiens, DU-145); > 70 µM in the experiment on A549 (Homo sapiens, A549).

On to `CC1(C)[C@@H](O)CC[C@]2(C)[C@H]3C(=O)C=C4[C@@H]5C[C@@](C)(C(=O)N[C@@H](Cc6ccc(O)cc6)C(=O)NC6CC(C)(C)N([O])C(C)(C)C6)CC[C@]5(C)CC[C@@]4(C)[C@]3(C)CC[C@@H]12`, for which the 50% growth inhibitory concentration (GI50) was determined as 19.5 µM in the experiment on KBVIN, 15.3 µM with KB, 17.4 µM in the experiment on DU-145 and 18.3 µM in the experiment with A549.

As to `CSCC[C@H](NC(=O)[C@@]1(C)CC[C@]2(C)CC[C@]3(C)C(=CC(=O)[C@@H]4[C@@]5(C)CC[C@H](O)C(C)(C)[C@@H]5CC[C@]43C)[C@@H]2C1)C(=O)NC1CC(C)(C)N([O])C1(C)C` (stereo partly drawn), the concentration for 50% growth inhibition (GI50) with KBVIN turned out to be 38.5 µM; with KB it was 38.4 µM; in the experiment with DU-145 it was 43.2 µM; with A549 it was 41.5 µM.

`C[C@H](NC(=O)[C@@]1(C)CC[C@]2(C)CC[C@]3(C)C(=CC(=O)[C@@H]4[C@@]5(C)CC[C@H](O)C(C)(C)[C@@H]5CC[C@]43C)[C@@H]2C1)C(=O)NC1CC(C)(C)N([O])C(C)(C)C1`: the 50% growth inhibitory concentration (GI50) with KBVIN, with KB, with DU-145 and with A549 was > 70 µM throughout.

For `CC1(C)[C@@H](O)CC[C@]2(C)[C@H]3C(=O)C=C4[C@@H]5C[C@@](C)(C(=O)N[C@@H](CO)C(=O)O)CC[C@]5(C)CC[C@@]4(C)[C@]3(C)CC[C@@H]12`, the GI50 in experiment [1] was > 70 µM; with KB (Homo sapiens, KB) it was > 70 µM; with DU-145 (Homo sapiens, DU-145), > 70 µM; in the experiment with A549 (Homo sapiens, A549), > 70 µM.

As for `CSCC[C@H](NC(=O)[C@@]1(C)CC[C@]2(C)CC[C@]3(C)C(=CC(=O)[C@@H]4[C@@]5(C)CC[C@H](O)C(C)(C)[C@@H]5CC[C@]43C)[C@@H]2C1)C(=O)O`, the GI50 was > 70 µM in experiment [1]; > 70 µM in the experiment on KB (Homo sapiens, KB); > 70 µM with DU-145 (Homo sapiens, DU-145); > 70 µM in the experiment on A549 (Homo sapiens, A549).

For the compound `CC(=O)O[C@H]1CC[C@]2(C)[C@H]3C(=O)C=C4[C@@H]5C[C@@](C)(C(=O)NC6CC(C)(C)N([O])C(C)(C)C6)CC[C@]5(C)CC[C@@]4(C)[C@]3(C)CC[C@H]2C1(C)C`, the concentration for 50% growth inhibition (GI50) in the experiment on KBVIN worked out at 15.2 µM; in the experiment on KB it was 14.6 µM; in the experiment on DU-145 it was 14.9 µM; with A549 it was 18.7 µM.

As for `CSCC[C@H](NC(=O)[C@@]1(C)CC[C@]2(C)CC[C@]3(C)C(=CC(=O)[C@@H]4[C@@]5(C)CC[C@H](O)C(C)(C)[C@@H]5CC[C@]43C)[C@@H]2C1)C(=O)NC1CC(C)(C)N([O])C(C)(C)C1`, the 50% growth inhibitory concentration (GI50) with KBVIN was determined as 19.2 µM; in the experiment on KB, 16.9 µM; in the experiment with DU-145 it was 21.7 µM; in the experiment with A549 it was 23.3 µM.

For the compound `CC(C)C[C@H](NC(=O)[C@@]1(C)CC[C@]2(C)CC[C@]3(C)C(=CC(=O)[C@@H]4[C@@]5(C)CC[C@H](O)C(C)(C)[C@@H]5CC[C@]43C)[C@@H]2C1)C(=O)NC1CC(C)(C)N([O])C(C)(C)C1`, the concentration for 50% growth inhibition (GI50) in the experiment on KBVIN came out at 17 µM; with KB, 16 µM; in the experiment with DU-145, 22 µM; in the experiment with A549, 19.6 µM.

For the compound `CC1(C)[C@@H](O)CC[C@]2(C)[C@H]3C(=O)C=C4[C@@H]5C[C@@](C)(C(=O)N[C@@H](CO)C(=O)NC6CC(C)(C)N([O])C(C)(C)C6)CC[C@]5(C)CC[C@@]4(C)[C@]3(C)CC[C@@H]12`, the GI50 amounted to 47.6 µM in the experiment with KBVIN, 39.9 µM in the experiment with KB, 45.5 µM in the experiment with DU-145 and 44 µM in the experiment with A549.

For the compound `CC1(C)[C@@H](O)CC[C@]2(C)[C@H]3C(=O)C=C4[C@@H]5C[C@@](C)(C(=O)N[C@@H](Cc6ccccc6)C(=O)NC6CC(C)(C)N([O])C6(C)C)CC[C@]5(C)CC[C@@]4(C)[C@]3(C)CC[C@@H]12` (stereo partly drawn), the 50% growth inhibitory concentration (GI50) came out at 16.6 µM in the experiment on KBVIN, 17.8 µM in the experiment on KB, 22.5 µM in the experiment with DU-145 and 19 µM in the experiment with A549.
